What was measured:
HGC-27 = assay: cells; assay type: functional, cell-based, Homo sapiens; details: Homo sapiens, HGC-27;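 note: growth inhibition of human HGC-27 cells, read out in a cell viability assay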
Description: SANGER: Inhibition of human HGC-27 cell growth in a cell viability assay.

CCF-STTG1 = assay: cells; assay type: functional, cell-based, Homo sapiens; details: Homo sapiens, CCF-STTG1;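 note: growth inhibition of human CCF-STTG1 cells, determined with a cell viability read-out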
Description: SANGER: Inhibition of human CCF-STTG1 cell growth in a cell viability assay.

DK-MG = assay: cells; assay type: functional, cell-based, Homo sapiens; details: Homo sapiens, DK-MG;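 note: growth inhibition of DK-MG cells, read out with a cell viability assay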
Description: SANGER: Inhibition of human DK-MG cell growth in a cell viability assay.

J82 = assay: cells; assay type: functional, cell-based, Homo sapiens; details: Homo sapiens, J82;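 note: growth inhibition of J82 cells, read out with a cell viability assay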
Description: SANGER: Inhibition of human J82 cell growth in a cell viability assay.

SNU-475 = assay: cells; assay type: functional, cell-based, Homo sapiens; details: Homo sapiens, SNU-475
Description: SANGER: Inhibition of human SNU-475 cell growth in a cell viability assay.

P12-Ichikawa = assay: cells; assay type: functional, cell-based, Homo sapiens; details: Homo sapiens, P12-Ichikawa
NCI-H1693 = assay: cells; assay type: functional, cell-based, Homo sapiens; details: Homo sapiens, NCI-H1693;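 note: growth inhibition of the human cell line, read out with a cell viability assay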
Description: SANGER: Inhibition of human NCI-H1693 cell growth in a cell viability assay.

L-540 = assay: cells; assay type: functional, cell-based, Homo sapiens; details: Homo sapiens, L-540;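 note: growth inhibition of the human L-540 cell line, read out with a viability assay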
Description: SANGER: Inhibition of human L-540 cell growth in a cell viability assay.

TYK-nu = assay: cells; assay type: functional, cell-based, Homo sapiens; details: Homo sapiens, TYK-nu;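 note: growth inhibition of human TYK-nu cells, read out by a cell viability assay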
Description: SANGER: Inhibition of human TYK-nu cell growth in a cell viability assay.

ST486 = assay: SANGER: Inhibition of human ST486 cell growth in a cell viability assay.; assay type: functional, cell-based; details: Homo sapiens, ST486
C3A = assay: cells; assay type: functional, cell-based, Homo sapiens; details: Homo sapiens, C3A;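 note: growth inhibition of C3A human cells, quantified with a cell viability readout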
Description: SANGER: Inhibition of human C3A cell growth in a cell viability assay.

DoTc2-4510 = assay: cells; assay type: functional, cell-based, Homo sapiens; details: Homo sapiens, DoTc2-4510
NCI-H1618 = assay: cells; assay type: functional, cell-based, Homo sapiens; details: Homo sapiens, NCI-H1618;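 note: growth inhibition of human NCI-H1618 cells, measured by a cell viability assay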
Description: SANGER: Inhibition of human NCI-H1618 cell growth in a cell viability assay.

NCI-H2170 = assay: cells; assay type: functional, cell-based, Homo sapiens; details: Homo sapiens, NCI-H2170;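 note: cell viability assay measuring growth inhibition of human NCI-H2170 cancer cells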
Description: SANGER: Inhibition of human NCI-H2170 cell growth in a cell viability assay.

COLO 205 = assay: cells; assay type: functional, cell-based, Homo sapiens; details: Homo sapiens, COLO 205
Description: SANGER: Inhibition of human COLO-205 cell growth in a cell viability assay.

EFO-21 = assay: cells; assay type: functional, cell-based, Homo sapiens; details: Homo sapiens, EFO-21;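 note: growth inhibition of EFO-21 cells measured with a viability assay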
Description: SANGER: Inhibition of human EFO-21 cell growth in a cell viability assay.

Detroit 562 = assay: cells; assay type: functional, cell-based, Homo sapiens; details: Homo sapiens, Detroit 562;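 note: growth inhibition of human Detroit 562 cells, read out by a cell viability assay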
Description: SANGER: Inhibition of human Detroit562 cell growth in a cell viability assay.

HCC1143 = assay: cells; assay type: functional, cell-based, Homo sapiens; details: Homo sapiens, HCC1143;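 note: growth inhibition of human HCC1143 cells, read out with a cell viability assay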
Description: SANGER: Inhibition of human HCC1143 cell growth in a cell viability assay.

SK-CO-1 = assay: cells; assay type: functional, cell-based, Homo sapiens; details: Homo sapiens, SK-CO-1;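 note: growth inhibition of SK-CO-1 cells, determined by a viability readout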
Description: SANGER: Inhibition of human SK-CO-1 cell growth in a cell viability assay.

PLC-PRF-5 = assay: cells; assay type: functional, cell-based, Homo sapiens; details: Homo sapiens, PLC-PRF-5;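 note: growth inhibition of human PLC-PRF-5 cells, read out with a viability assay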
Description: SANGER: Inhibition of human PLC-PRF-5 cell growth in a cell viability assay.

LC-1F = assay: cells; assay type: functional, cell-based, Homo sapiens; details: Homo sapiens, LC-1F;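 note: growth inhibition of human LC-1F cells, read out with a cell viability assay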
Description: SANGER: Inhibition of human LC-1F cell growth in a cell viability assay.

UACC-812 = assay: cells; assay type: functional, cell-based, Homo sapiens; details: Homo sapiens, UACC-812
Description: SANGER: Inhibition of human UACC-812 cell growth in a cell viability assay.

IPC-298 = assay: SANGER: Inhibition of human IPC-298 cell growth in a cell viability assay.; assay type: functional, cell-based; details: Homo sapiens, IPC-298
CESS = assay: SANGER: Inhibition of human CESS cell growth in a cell viability assay.; assay type: functional, cell-based; details: Homo sapiens, CESS
MeWo = assay: cells; assay type: functional, cell-based, Homo sapiens; details: Homo sapiens, MeWo;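 note: growth inhibition of MeWo cells, determined by a cell viability readout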
Description: SANGER: Inhibition of human Mewo cell growth in a cell viability assay.

NCI-H1993 = assay: cells; assay type: functional, cell-based, Homo sapiens; details: Homo sapiens, NCI-H1993;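 note: growth inhibition of the cancer cell line, assessed with a cell viability assay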
Description: SANGER: Inhibition of human NCI-H1993 cell growth in a cell viability assay.

HSC-3 = assay: cells; assay type: functional, cell-based, Homo sapiens; details: Homo sapiens, HSC-3
Description: SANGER: Inhibition of human HSC-3 cell growth in a cell viability assay.

MIA PaCa-2 = assay: cells; assay type: functional, cell-based, Homo sapiens; details: Homo sapiens, MIA PaCa-2;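 note: growth inhibition of MIA PaCa-2 cells, read out with a cell viability assay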
Description: SANGER: Inhibition of human MIA-PaCa-2 cell growth in a cell viability assay.

KYSE-140 = assay: cells; assay type: functional, cell-based, Homo sapiens; details: Homo sapiens, KYSE-140;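 note: cell viability assay measuring growth inhibition in human KYSE-140 cells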
Description: SANGER: Inhibition of human KYSE-140 cell growth in a cell viability assay.

YAPC = assay: cells; assay type: functional, cell-based, Homo sapiens; details: Homo sapiens, YAPC;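 note: growth inhibition of YAPC cells, measured with a cell viability assay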
Description: SANGER: Inhibition of human YAPC cell growth in a cell viability assay.

NCI-H2009 = assay: cells; assay type: functional, cell-based, Homo sapiens; details: Homo sapiens, NCI-H2009;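 note: cell viability assay measuring inhibition of NCI-H2009 cell growth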
Description: SANGER: Inhibition of human NCI-H2009 cell growth in a cell viability assay.

HEC-1 = assay: cells; assay type: functional, cell-based, Homo sapiens; details: Homo sapiens, HEC-1;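 note: growth inhibition of the cell line, read out with a cell viability assay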
Description: SANGER: Inhibition of human HEC-1 cell growth in a cell viability assay.

NCI-H1436 = assay: cells; assay type: functional, cell-based, Homo sapiens; details: Homo sapiens, NCI-H1436;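 note: growth suppression of human NCI-H1436 cells, determined with a cell viability readout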
Description: SANGER: Inhibition of human NCI-H1436 cell growth in a cell viability assay.

RT-4 = assay: SANGER: Inhibition of human RT4 cell growth in a cell viability assay.; assay type: functional, cell-based; details: Homo sapiens, RT-4
UMC-11 = assay: cells; assay type: functional, cell-based, Homo sapiens; details: Homo sapiens, UMC-11;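 note: growth inhibition of UMC-11 cells, read out with a cell viability assay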
Description: SANGER: Inhibition of human UMC-11 cell growth in a cell viability assay.

NCI-H1792 = assay: cells; assay type: functional, cell-based, Homo sapiens; details: Homo sapiens, NCI-H1792;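 note: growth inhibition of human NCI-H1792 cells, read out as cell viability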
Description: SANGER: Inhibition of human NCI-H1792 cell growth in a cell viability assay.

MFE-296 = assay: SANGER: Inhibition of human MFE-296 cell growth in a cell viability assay.; assay type: functional, cell-based; details: Homo sapiens, MFE-296
CAL-85-1 = assay: cells; assay type: functional, cell-based, Homo sapiens; details: Homo sapiens, CAL-85-1;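 note: growth inhibition of human CAL-85-1 cells, read out with a cell viability assay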
Description: SANGER: Inhibition of human CAL-85-1 cell growth in a cell viability assay.

Compound | IC50 (HGC-27) [nM] | IC50 (CCF-STTG1) [nM] | IC50 (DK-MG) [nM] | IC50 (J82) [nM] | IC50 (SNU-475) [nM] | IC50 (P12-Ichikawa) [nM] | IC50 (NCI-H1693) [nM] | IC50 (L-540) [nM] | IC50 (TYK-nu) [nM] | IC50 (ST486) [nM] | IC50 (C3A) [nM] | IC50 (DoTc2-4510) [nM] | IC50 (NCI-H1618) [nM] | IC50 (NCI-H2170) [nM] | IC50 (COLO 205) [nM] | IC50 (EFO-21) [nM] | IC50 (Detroit 562) [nM] | IC50 (HCC1143) [nM] | IC50 (SK-CO-1) [nM] | IC50 (PLC-PRF-5) [nM] | other results
Cc1cc([N+](=O)[O-])ccc1NS(=O)(=O)c1cc(Cl)ccc1Cl | 4030 | 12800 | 12300 | 2620 | > 32000 | 13800 | > 32000 | 9460 | 2010 | 4830 | 2240 | 1520 | > 32000 | 1440 | 2550 | 11100 | 5320 | 1820 | 13400 | 1170 | IC50 (LC-1F): > 32000 nM; IC50 (UACC-812): > 32000 nM; IC50 (IPC-298): 2690 nM; IC50 (CESS): > 32000 nM; IC50 (MeWo): 28600 nM; IC50 (NCI-H1993): 17200 nM; IC50 (HSC-3): 2890 nM; IC50 (MIA PaCa-2): 601 nM; IC50 (KYSE-140): 4580 nM; IC50 (YAPC): > 32000 nM; IC50 (NCI-H2009): 2690 nM; IC50 (HEC-1): 8240 nM; IC50 (NCI-H1436): > 32000 nM; IC50 (RT-4): > 32000 nM; IC50 (UMC-11): 1090 nM; IC50 (NCI-H1792): 8530 nM; IC50 (MFE-296): 4700 nM; IC50 (CAL-85-1): 3610 nM
Nc1ccn([C@@H]2O[C@H](CO)[C@@H](O)C2(F)F)c(=O)n1 [GEMCITABINE] | 9.6 | 31.4 | > 1020 | 7.41 | > 1020 | 84.7 | 46.1 | 1.6 | 72.6 | 9.41 | 8.84 | < 4 | 198 | 12 | > 1020 | 53.7 | 10.4 | > 1020 | 34 | > 1020 | IC50 (LC-1F): > 1020 nM; IC50 (UACC-812): > 1020 nM; IC50 (IPC-298): 255 nM; IC50 (CESS): 23.2 nM; IC50 (MeWo): > 1020 nM; IC50 (NCI-H1993): > 1020 nM; IC50 (HSC-3): 1.91 nM; IC50 (MIA PaCa-2): 23.4 nM; IC50 (KYSE-140): 27.9 nM; IC50 (YAPC): > 1020 nM; IC50 (NCI-H2009): < 4 nM; IC50 (HEC-1): 124 nM; IC50 (NCI-H1436): > 1020 nM; IC50 (RT-4): > 1020 nM; IC50 (UMC-11): > 1020 nM; IC50 (NCI-H1792): 259 nM; IC50 (MFE-296): 51.4 nM; IC50 (CAL-85-1): 145 nM

From ChEMBL document CHEMBL1201861, “Genomics of Drug Sensitity in Cancer screening data, Wellcome Trust Sanger Institute”
